Results: patent US9458161B1, “TSPO ligands for cancer imaging and treatment” (Vanderbilt University, priority 2011, dated 2016)
“Also recorded” adds a separate entry of the source. Like-named read-outs stand apart in the source and are kept apart here.

Assays:
TSPO [1] = target: T1, TSPO (Rattus norvegicus, UniProt P16257); test: Radioligand displacement of [3H]PK 11195 in C6 glioma cell / tumor lysate; assay type: binding; design: from tissue; host or cells: C6 glioma tumour and normal brain / other tissues of living rats; conditions: for binding affinity (in words): tumor lysate / C6 cell lysate; for binding affinity: whole tumor lysate
Method: Given our focus of targeting TSPO expressed in tumors, affinity assays will be conducted in whole and fractionated tumor lysate.
In this Example Glioma-bearing rats were imaged with [^18F]PBR06 in a microPET system. Dynamic acquisitions were acquired simultaneously upon injection of 70-100 MBq/0.2 mL [^18F]PBR06. Over the course of scanning, arterial blood was collected to derive the input function, with HPLC radiometabolite analysis performed on selected samples for arterial input function correction. Compartmental modeling of the PET data was performed using the corrected arterial input function. Specific tumor cell binding of PBR06 was evaluated by radioligand displacement of [^3H]PK 11195 with PBR06 in vitro and by displacement of [^18F]PBR06 with excess PBR06 in vivo. Immediately following imaging, tumor tissue and adjacent healthy brain were harvested for assay of TSPO protein levels by western blotting and immunohistochemistry.
Radioligand displacement of the high-affinity isoquinoline carboxamide TSPO ligand [^3H]PK 11195 was used to evaluate the specific binding of the non-radioactive analogue PBR06 in C6 glioma cell line homogenates in vitro (FIG. 10). […]

TSPO [2] = target: T1, TSPO; test: Dynamic microPET of [18F]VUIIS-1008 in C6 glioma-bearing rats, with compartmental modeling and in vivo displacement; design: from tissue; host or cells: C6 glioma tumour and normal brain / other tissues of living rats; conditions: for VT (calculated): mean ± SE; for tracer distribution tumor vs normal brain (in words): C6 glioma
Method: Dynamic microPET imaging can be performed as in tumor-bearing and non-tumor-bearing rats. […] […] For displacement studies, ‘cold’ analog (10 mg/kg) are injected via jugular catheter 30 min after radiotracer administration. Prior to PET scanning, tumors are localized in tumor-bearing rats using MRI, including T2-weighted and diffusion-weighted scans. For longitudinal studies, tumor volumes are measured using a three-dimensional, T2-weighted fast spin-echo sequence on a Varian 9.4 T horizontal bore imaging system.
A 3-compartment, 4-rate constant kinetic model can be used to characterize [^18F]PBR06 pharmacokinetics. […] These rate constants can be used to calculate the total volume of distribution (VT) in tissues of interest. Modeling will be carried out for whole brain (excluding tumor) and tumor by fitting time-activity curves (TACs) of each region.
Before PET imaging with ^18F-VUIIS1008, brain tumors were localized with T2-weighted MRI. […] After the initial spike in radioactivity consistent with tracer injection, ^18F-VUIIS1008 rapidly cleared from the plasma. Imaging-matched brains were processed for staining and immunohistochemistry. Using standard hematoxylin and eosin staining to localize the tumor, the present inventors discovered that TSPO expression was significant higher in tumor than in the adjacent healthy brain.
In order to fully evaluate the novel performance of ^18F-VUIIS1008, we have also determined ^18F-VUIIS 1008 pharmacodynamics with arterial input function.

TSPO [3] = target: T2, TSPO (Mus musculus, UniProt P50637); test: TSPO-PET with 18F-VUIIS1008 in Lrig1-CreERT2;Apcfl/+ mouse model of colorectal cancer; assay type: in vivo
T2 construct: from tissue; host or cells: colon tumours (Lrig1-CreERT2;Apcfl/+ mice) and pancreatic tumours (Ptf1a-cre;LSL-KrasG12D;Tgfbr2fl/fl mice) in living mice
Method: All studies were conducted in accordance with federal and institutional guidelines. Lrig1-CreERT2/+mice (35) were crossed to Apcfl/+mice to generate Lrig1-CreERT2/+; Apcfl/+mice. Six to eight week old mice were injected with 2 mg tamoxifen (Sigma Aldrich) intraperitoneally for three consecutive days to induce tumor formation. Mice were imaged approximately 100 days after injection of tamoxifen and then sacrificed
Colonoscopy (KARL STORZ-SCB Endoscope System) was performed monthly beginning two months after tamoxifen induction. Mice are anesthetized and immobilized using 2% isofluorane anesthesia in 100% oxygen at 2 L/min. Tumor formation within a single mouse was tracked over time. Upon visual detection of distal colon tumors mice were designated for PET imaging.
PET imaging was performed using a dedicated small animal PET scanner (Concorde Microsystems Focus 220) as described. Briefly, mice were maintained under 2% isofluorane anesthesia in 100% oxygen at 2 L/min and kept warm via a circulating water heating pad during the PET scan. Animals were administered 7.4-9.3 MBq of [^18F]-VUIIS1008 intravenously and allowed free access to food and water during a 50 minute uptake period and a 20 minute PET acquisition. Scans were reconstructed using OSEM3D/MAP.

[4] = tested on: HCT116 p53−/− human CRC cells; test: Immunoblotting of markers in HCT116 p53−/− cells (mutant KRAS) after 24 h drug exposure; assay type: cell-based
Method: In these studies, HCT116 p53−/− human CRC cells were exposed to drug for 24 h, harvested, and the protein levels of various markers were assayed by immunoblotting.

TSPO [5] = target: T1, TSPO; test: Compartmental binding assay in heavy and light fractions of C6 cell lysate; design: from tissue; host or cells: C6 glioma tumour and normal brain / other tissues of living rats
Text: In order to fully characterize TSPO expression profile in the healthy tissues and C6 cells, this example includes subcellular studies. The present inventors separated two fractions of tissue and C6 cell lysates based on the density difference. […] Based on these two fractions, we performed western blot to determine TSPO expression profile in a variety of healthy tissues and C6 cell lysates. […] Thus, we evaluated the binding potential of VUIIS1008 in different fractions.

LIM 2405 human CRC cells = test: Immunoblotting of markers in LIM 2405 cells (mutant B-RAF) after 24 h drug exposure; assay type: cell-based
Method: In these studies, LIM 2405 human CRC cells were exposed to drug for 24 h, harvested, and the protein levels of various markers were assayed by immunoblotting.

DiFi human CRC cells = test: Immunoblotting of markers in DiFi cells (WT KRAS) after 24 hr drug exposure; assay type: cell-based
Method: In these studies, cultured cells were exposed to drug for 24 hr, harvested, and the protein levels of various markers were assayed by immunoblotting.

colorectal cancer (CRC) = test: In vivo combination of PBR06 with Cetuximab in WT and mutant KRAS CRC cohorts; design: species or system mice
Text: This synergism is shown with both wild type (WT) and mutant KRAS colorectal cancer (CRC) cohorts (mice).

nuclear TSPO = test: Fractional (nuclear) displacement assay against [3H]PK 11195; conditions: fractional nuclear binding assay, displacement of [3H]PK 11195
Method: The characterization strategy can begin with a high-throughput fractional displacement assay developed in our laboratory (FIG. 8). This assay capitalizes upon the fact that PK 11195 binds nuclear and mitochondrial TSPO. Fractionated tumor lysate material containing an equivalent distribution of nuclear and mitochondrial TSPO (32) is incubated with [^3H]PK 11195 and candidate ligands. After incubation, protein is collected by centrifugation and microspotted in triplicate into high-density arrays (˜1 uL). The resultant radioligand displacement of each assay is quantified using a high-resolution digital autoradiography imaging system (BiospaceLab).

[6] = 1-tissue model, tumor, mean (SE in next line)
[7] = PBR06 single agent, increasing concentrations, 24 h
[8] = C6 glioma cell lysate / tumor lysate, read-out: IC50, displacement of [3H]PK 11195

## CCc1cc(CC)n2nc(-c3ccc(OCCF)cc3)c(CC(=O)N(CC)CC)c2n1 [[^18F]VUIIS-1008]
TSPO [1]
  binding affinity (in words): improved binding affinity in tumor lysate compared to PBR06 or DPA-714
  binding affinity: ~1 nM
TSPO [2]; 1-tissue model, brain, mean
  K1: 0.3161 mL/g/min
  k2: 0.3048 min⁻¹
TSPO [2]; 1-tissue model, brain
  VT (calculated): 1.3 ± 0.2
TSPO [2]; [6]
  K1: 0.3535 mL/g/min
  k2: 0.0964 min⁻¹
TSPO [2]; 1-tissue model, tumor
  VT (calculated): 3.6 ± 0.6
TSPO [2]; 2-tissue model, brain, mean
  K1: 0.5856 mL/g/min
  k2: 2.0217 min⁻¹
  k3: 0.2903 min⁻¹
  k4: 0.0912 min⁻¹
TSPO [2]; 2-tissue model, brain
  VT (calculated): 1.7 ± 0.4
TSPO [2]; 2-tissue model, tumor, mean
  K1: 0.5448 mL/g/min
  k2: 1.2413 min⁻¹
  k3: 0.1300 min⁻¹
  k4: 0.0234 min⁻¹
TSPO [2]; 2-tissue model, tumor
  VT (calculated): 4.6 ± 0.8
TSPO [2]; 3-tissue model, brain, mean
  K1: 0.6925 mL/g/min
  k2: 3.7619 min⁻¹
  k3: 0.8194 min⁻¹
  k4: 0.2569 min⁻¹
  k5: 0.5314 min⁻¹
  k6: 0.1748 min⁻¹
TSPO [2]; 3-tissue model, brain
  VT (calculated): 1.4 ± 0.2
TSPO [2]; 3-tissue model, tumor, mean
  K1: 0.6449 mL/g/min
  k2: 2.9459 min⁻¹
  k3: 0.4597 min⁻¹
  k4: 0.1371 min⁻¹
  k5: 0.2304 min⁻¹
TSPO [2]; 3-tissue model, tumor
  VT (calculated): 6.4 ± 1.8
TSPO [2]; 3-tissue model, tumor, mean, listed as [18F]VUIIS1008
  k6: 0.0574 min⁻¹
TSPO [2]; 90 min dynamic PET scan
  stability in plasma, HPLC radiometabolite assay (in words): high stability of this probe in the 90 min dynamic PET scan
TSPO [2]
  tracer distribution tumor vs normal brain (in words): robust tumor uptake, yet very little normal brain uptake
TSPO [2]; listed as 18F-VUIIS1008
  tracer distribution tumor vs normal brain (in words): most of the uptake in the brain was localized to the tumor, with only modest accumulation in the adjacent, normal brain
TSPO [2]; glioma-bearing rats
  clearance and accumulation compared with 18F-DPA714 (in words): a similar clearance and accumulation in brain, while a faster clearance and a slower accumulation in tumor
TSPO [2]; in vivo displacement
  displacement from the tumor by 'cold' VUIIS-1008 (in words): no detectable displacement from the tumor
  increase in tracer levels in plasma on displacement with 'cold' VUIIS-1008: 25 fold
TSPO [3]; Lrig1-CreERT2;Apcfl/+ mice with colonoscopy confirmed tumors
  tracer uptake in distal colon (in words): increased, focal uptake in the distal colon compared to adjacent non-tumor tissue and wild type controls
TSPO [3]; wild type mice
  tracer uptake in colon (in words): low tracer uptake in the colon

## COc1ccc(OC)c(CN(C(=O)CF)c2ccccc2Oc2ccccc2)c1 [PBR06]
[4]; C225 combined with all but the lowest concentration of PBR06
  cleaved caspase 3 (apoptosis): significant levels of cleaved caspase 3 were induced
[4]; PBR06 in combination with elevated concentrations of C225
  pERK levels: pERK could be fully inhibited at elevated concentrations of C225 with PBR06
[4]; [7]
  pERK levels: modestly elevated levels of pERK
[4]; lowest concentration of C225 combined with PBR06 at all concentrations
  p27 levels (cell cycle arrest): resulted in elevated p27
TSPO [5]
  binding affinity in heavy (nuclei) and light (mitochondria) fractions (in words): bind to the light fraction selectively with a high binding affinity
TSPO [1]
  IC50: ~12.6 nM
  binding affinity: ~12 nM
TSPO [1]; [8]
  IC50: 12 nM
LIM 2405 human CRC cells; PBR06 in combination with C225, even the lowest dosages of C225
  p21 induction: significant induction of p21
LIM 2405 human CRC cells; [7]
  pERK levels: elevated levels of pERK
DiFi human CRC cells; PBR06 single agent 10 nM, 24 hr
  p27 levels (cell cycle arrest): significantly elevated p27
DiFi human CRC cells; PBR06 single agent, increasing concentrations 10 nM-10 uM, 24 hr
  pERK levels: modestly elevated levels of pERK
DiFi human CRC cells; WT KRAS CRC cell line
  enhancement in the efficacy of C225 by combination with TSPO ligand: approximately 10 fold
DiFi human CRC cells; lowest dosage of C225 (+) combined with all dosages of PBR06
  p27 levels (cell cycle arrest): significantly elevated levels of p27 could be achieved
Colorectal cancer (CRC); WT and mutant KRAS CRC cohorts (mice)
  effect in combination with Cetuximab (in words): in vivo synergistic effect
Colorectal cancer (CRC); mice
  tolerability (in words): well tolerated among the test subjects

## CCc1cc(CC)n2nc(-c3ccc(OCCF)cc3)c(CC(=O)N(CC)CC)c2n1 [VUIIS-1008]
TSPO [5]
  binding affinity in heavy (nuclei) and light (mitochondria) fractions (in words): comparable high binding affinity of VUIIS1008 in both two fractions
TSPO [1]; C6 cell lysate, against [3H]PK11195
  fold higher binding affinity compared with DPA-714 and PBR06: 30 fold
TSPO [1]; [8]
  IC50: ~1 nM
TSPO [1]; against 3H-PK 11195 in tumor lysate
  IC50 fold lower than PBR06 or DPA-714: approximately 10 fold
TSPO [1]; listed as VUIIS1008
  binding affinity (in words): sub-nanomolar binding affinity
TSPO [2]; 3-tissue model, tumor, mean, listed as VUIIS1008
  k6: near-zero K6 in the tumor
Nuclear TSPO
  affinity for nuclear TSPO (in words): nanomolar binding affinity; also recorded: targets nuclear TSPO
